Laboratory results: patent US8110555B2, “7-hydroxy chromones as potent antioxidants” (Unigen, Inc., priority 2002, dated 2012)

What was measured:
tyrosinase = conditions: cited from earlier work; for type of tyrosinase inhibition (Lineweaver Burk diagram): Yagi et al. (1987)
[1] = tested on: oxygen radical damage of β-phycoerythrin (β-PE) indicator protein; experiment: Oxygen Radical Absorption Capacity (ORAC) assay, whole ORAC; type: biochemical; conditions: FIG. 4
Text: The Oxygen Radical Absorption Capacity (ORAC) assay is a method for measuring total serum antioxidant activity. (Cao et al. (1993) Free Rad. Biol. Med. 14:303-311). It can be used to quantitatively measure the total antioxidant capacity, as well as, qualitatively measure the levels of fast versus slow acting antioxidants in a blood serum sample. The assay utilizes the free radical sensitive fluorescent indicator protein β-phycoerythrin (β-PE) to monitor the effectiveness of various serum antioxidants in protecting β-PE from becoming damaged by free radicals. Assay results are quantitated by allowing the reaction to reach completion and then integrating the area under the kinetic curve relative to a blank reaction containing no antioxidant. The area under the curve is proportional to the concentration of all the antioxidants present in the sample. (DeLang and Glazer (1989) Analyt. Biochem. 177:300-306).
The chromones, Aloesin and Aloeresin A, were tested for Oxygen Radical Absorption Capacity (ORAC) relative to green tea extract which contains more than 50% total catechins and more than 25% epigallocatechingallate (EGCG) and grape seed extract which contains more than 95% total phenols. The ORAC assay measures the time-dependent decrease in the fluorescence of β-phycoerythrin (β-PE) indicator protein, resulting from oxygen radical damage. This assay provides a quantitative measure of the total antioxidant capacity to protect the free radical sensitive β-phycoerythrin. Each reaction was calibrated using the known standard Trolox, a water soluble vitamin E analogue. The ORAC value refers to the net protection area under the quenching curve of β-phycoerythrin in the presence of an antioxidant. The results of the assay are reported on the basis of 1 ORAC unit equals 1 μM of Trolox. Aloeresin A (purity 76.0%), aloesin (95.2%), green tea extract and grape seed extract were dissolved in deionized water (5% solution W/V) and tested directly using the experimental procedures described in Cao et al. (1994) Free Radic. Biol. Med. 16:135-137 and Prior and Cao (1999) Proc. Soc. […]

[2] = tested on: spontaneous lipid peroxidation reaction; experiment: Lipid Peroxidation Inhibition Capacity (LPIC) assay, MDA by thiobarbituric acid reaction; type: biochemical; conditions: for inhibition of lipid peroxidation: concentration 5 mg/mL in phosphate-saline buffer
Text: The Lipid Peroxidation Inhibition Capacity (LPIC) assay is a method for measuring the ability of a sample to inhibit the initiation and propagation of a spontaneous lipid peroxidation reaction. Lipid peroxidation represents the major mechanism of lipid destruction occurring in an organism. This reaction is also an important source of reactive oxygen species. In part, lipid peroxidation is controlled in vivo by:
Lipid Peroxidation Inhibition Capacity (LPIC) is a measure of the anti-oxidative ability of a sample to inhibit the initiation and propagation of a spontaneous lipid peroxidation reaction. Malonyldialdehyde (MDA) is one of the major by-products of lipid peroxidation and is commonly used as a means of measuring the extent of lipid peroxidation. MDA concentrations were measured using the thiobarbituric acid reaction. Aloeresin A (purity 76.0%), vitamin C and cc-tocopherol were dissolved in a phosphate-saline buffer at four different concentrations (5 mg/mL, 10 mg/mL, 25 mg/mL and 50 mg/mL) and then tested directly using the experiment procedures described by Stocks et al. (1974) Clinical Sci. Mol. 47:215-222 and Yu and Lee, U.S. Pat. No. 5,939,395.

[3] = tested on: oxygen radical damage of β-phycoerythrin (β-PE) indicator protein; experiment: ORAC of a meta-berry fruit drink product with added aloeresin A; type: biochemical; conditions: aloeresin A at a concentration of 5%; FIG. 7
Procedure: A fruit drink product obtained from Oasis Wellness Network was determined, using the methods described in Example 3, to have an ORAC value of 3,129/oz. Aloeresin A, containing 76.0% aloeresin A was added to 40 mL of the drink (lot #0612, exp. […] These samples were then tested for whole ORAC value relative to the product in the absence of aloeresin A. using the experiment procedures illustrated described by Cao et al. (1994) Free Radic. Biol. Med. 16:135-137 and Prior and Cao (1999) Proc. Soc. Exp. Biol. Med. 220:255-261).

[4] = tested on: oxygen radical damage of β-phycoerythrin (β-PE) indicator protein; experiment: Fast and slow Oxygen Radical Absorption Capacity (ORAC); type: biochemical; conditions: for slow antioxidant activity, comparison in words: slow ORAC (50% of β-phycoerythrin survives)
Text: Ascorbic acid, free phenolic compounds and thiol compounds are fast acting antioxidants. The slow antioxidant activity is a measure of the net protection area under the quenching curve of β-phycoerythrin in the presence of an antioxidant, which inhibits free radical propagation to the extent that 50% of β-phycoerythrin survives. Flavonoids, carotenoids and polyphenols are slow acting antioxidants. Aloeresin A (purity 76.0%), Aloesin (95.2%), green tea extract and grape seed extract, respectively were dissolved in deionized water (5% (W/V) solution) and tested directly using the experiment procedures described by Cao et al. (1994) Free Radic. Biol. Med. 16:135-137 and Prior and Cao (1999) Proc. Soc. Exp. Biol. Med. 220:255-261.

Compound: COc1cc(/C=C/C(=O)O[C@@H]2[C@@H](O)[C@H](O)[C@@H](CO)O[C@H]2c2c(O)cc(C)c3c(=O)cc(CC(C)=O)oc23)ccc1O [2″-feruloylaloesin, 2″-O-feruloylaloesin, reference compound]
- type of tyrosinase inhibition (Lineweaver Burk diagram) (tyrosinase): non-competitive inhibitor

Compound: CC(=O)Cc1cc(=O)c2c(C)cc(O)c([C@@H]3O[C@H](CO)[C@@H](O)[C@H](O)[C@H]3OC(=O)/C=C/c3ccc(O)cc3)c2o1 [aloeresin A]
- whole ORAC value higher than grape seed extract ([1]; 5% (W/V) solution, difference to grape seed extract): 299
- whole ORAC value higher than green tea extract ([1]; 5% (W/V) solution, difference to green tea extract): 33
- inhibition of lipid peroxidation [2]: 30.7%
- lipid peroxidation inhibition capacity (LPIC), comparison in words ([2]; concentrations of 10 mg/mL to 50 mg/mL, vs α-tocopherol and vitamin C, FIG. 6): stronger antioxidant than either α-tocopherol or vitamin C
- increase of ORAC value of a multiple berry fruit drink [3]: 31.3%
- fast antioxidant potency relative to the other three compositions ([4]; fast ORAC (95% of β-phycoerythrin survives), 5% (W/V) solution, FIG. 5): four times more potent as a fast antioxidant
- slow antioxidant activity, comparison in words ([4]; 5% (W/V) solution, FIG. 5): superior antioxidant relative to grape seed and green tea extracts

Compound: CC(=O)Cc1cc(=O)c2c(C)cc(O)c([C@@H]3O[C@H](CO)[C@@H](O)[C@H](O)[C@H]3O)c2o1 [aloesin]
- whole ORAC value, comparison in words ([1]; 5% (W/V) solution in deionized water, vs aloeresin A, green tea and grape seed extracts): much higher whole ORAC value than aloeresin A and the standardized green tea and grape seed extracts
- type of tyrosinase inhibition (Lineweaver Burk diagram) (tyrosinase): competitive inhibitor
- IC50 (tyrosinase; substrate L-DOPA, read-out: concentration for 50% inhibition of tyrosinase activity): 200 µM
- more active than grape seed extract at 50% ORAC conditions ([4]; 50% ORAC conditions, relative to grape seed extract): more than six times more active
- more active than green tea extract at 50% ORAC conditions ([4]; 50% ORAC conditions, relative to green tea extract): over 70%
- slow antioxidant activity, comparison in words ([4]; 5% (W/V) solution, FIG. 5): more potent as a slow acting antioxidant

Compound: Cc1c(C)c2c(c(C)c1O)CC[C@@](C)(CCC[C@H](C)CCC[C@H](C)CCCC(C)C)O2 [α-tocopherol, reference compound]
- inhibition of lipid peroxidation [2]: below 10%
